Source: patent US5561122A, “Combretastatin A-4 prodrug” (Arizona Board of Regents acting on behalf of Arizona State …, priority 1994, dated 1996)
Where two headings read alike, the source gives them in different places.

Tests used:
[1] = tested on: NCI 60 cell line panel (human tumor cell lines); assay: NCI 60 cell line full-panel screen (growth inhibition) with COMPARE analysis; assay type: cell-based; conditions: for GI50: Homo sapiens, 60 cell, read-out: mean panel GI50 concentration
Text: The following measures are used to express drug activity by giving the drug dose which reduces cell growth to a specified percentage of growth:
ED50 (P388) and GI50 (HTCL) are the drug doses needed to reduce the percent growth to 50%. There is no mathematical difference between ED50 and GI50, which are both calculated using the same formula. The only difference is historical usage.
Total Growth Inhibition ("TGI") is the drug dose needed to yield zero percent growth, i.e., just as many cells at the end of the experiment as were present in the beginning. Whether just as many cells were killed as were produced (steady state), or no growth occurred (total inhibition), cannot be distinguished.
Lethal Concentration 50% ("LC50 ") is the drug concentration which reduces growth to -50%, i.e., removes half of the cells originally present at the beginning of the experiment.
Each drug is tested at five (5) doses: 100 - 10 - 1 - 0.1 -0.01 μg/ml. Percent Growths are calculated for each dose. The two (or three) doses with growth values above, below, (or near to) 50% growth are used to calculate the ED50 /GI50 using a linear regression formula. The log of the dose is used during the regression computation. If no dose yields a growth value under 50%, the results are expressed as: ED50 >(highest dose). If no dose yields growth higher than 50% growth, then ED50 <(lowest dose). Similar calculations are performed for the TGI at 0% growth, and at -50% growth for the LC50.
At the start of an experiment, cells from the in vitro cell cultures are inoculated into the appropriate tubes or microtiter plates. One set of control tubes/plates is immediately counted to determine the number of cells at the start of the experiment. This is the "baseline count" or "Tzero reading". At the end of the experiment (48 hours later) a second set of control tubes/plates is analyzed to determine the "Control Growth" value. The growth (or death) of cells relative to the initial quantity of cells is used to define the "Percent of Growth".
For further information about the testing protocols and procedures see Anne Monks et al., "Feasibility of a High-Flux Anticancer Drug Screen Using a Diverse Panel of Cultured Human Tumor Cell Lines", 83 J. Nat. Cancer Inst. No. 11, pp. 757-66 (5 Jun. 1991) and […], "Status of the NCI Preclinical Antitumor Drug Discovery Screen" 3 Princ & Practice of Oncology Updates No. 10, pp. 1-12 (October 1989).
By definition a pro-drug is a precursor which will undergo metabolic activation in vivo to the active drug. […] Combretastatin A-4 (1a) and prodrug (1h) were then comparatively evaluated against the full-panel NCI screen (M. R. Boyd, "Status of the NCI Preclinical Antitumor Drug Discovery Screen: Implications for Selection of New Agents for Clinical trial," 3 Cancer: Principles and Practice of Oncology Updates No. 10, pp1-12 (1989) and M. R. Boyd et al. "The Future of New Drug Development. Section I. Introduction to Cancer Therapy," Current Therapy in Oncology. Philadelphia: Decker (1993)). […]

tubulin = conditions: Hamel et al., 1989; cited from earlier work
cancer cell = conditions: Von Hoff et al., 1993; cited from earlier work
[2] = stability / reaction with water; assay type: physicochemical

COc1ccc(/C=C\c2cc(OC)c(OC)c(OC)c2)cc1O [Compound 1a, combretastatin A-4]
GI50 ([1]; full-panel NCI screen, mean over panel, quadruplicate, 48 hours): 6.61 nM | tubulin assembly inhibition (tubulin): potent | cancer cell growth inhibition (cancer cell): potent

COc1ccc(/C=C\c2cc(OC)c(OC)c(OC)c2)cc1O [Compound 1b]
reaction with water [2]: regenerated combretastatin A-4

COc1ccc(/C=C\c2cc(OC)c(OC)c(OC)c2)cc1O [Compound 1c]
reaction with water [2]: regenerated combretastatin A-4

COc1ccc(/C=C\c2cc(OC)c(OC)c(OC)c2)cc1OC(=O)CCC(=O)O [Compound 1d]
aqueous solubility (in words) (water solubility): essentially insoluble | reaction with water [2]: regenerated combretastatin A-4

COc1ccc(/C=C\c2cc(OC)c(OC)c(OC)c2)cc1OP(=O)(O)O [Compound 1f, Ammonium hydrogen combretastatin A-4 3-O Phosphate]
aqueous solubility (in words) (water solubility): most soluble

COc1ccc(/C=C\c2cc(OC)c(OC)c(OC)c2)cc1OP(=O)(O)O [Compound 1g, Dipotassium combretastatin A-4 3-O-phosphate]
stability (in words) [2]: most stable

COc1ccc(/C=C\c2cc(OC)c(OC)c(OC)c2)cc1OP(=O)(O)O [Compound 1h, Disodium combretastatin A-4 3-O-Phosphate]
GI50 ([1]; 48 h): 6.89 nM | Pearson correlation coefficient for the differential cytotoxicity profiles (TGI-COMPARE) ([1]; combretastatin A-4 (1a) vs its prodrug (1h)): 0.91 | cell growth inhibitory activity ([1]; compared with combretastatin (1a)): comparable | in vitro activity levels in the NCI 60 cell line panel ([1]; compared with combretastatin A-4, activity level and COMPARE algorithm): reasonably similar
